Legend:
[1] = Octanol:water partition coefficient; assay type: physicochemical; conditions: read-out: Octanol: water partition coefficient (log P)
Excerpt: Administering a better absorbed more lipophilic prodrug, which is subsequently hydrolysed to GP531, achieves an increase in the systemic availability of GP531.

[2] = Urinary excretion of GP531 after oral dosing in rat (relative/absolute bioavailability); assay type: in vivo
Procedure: Two separate studies were conducted in the rat using the free base and/or the water soluble hydrochloride salt of Formula Va. In the first study, equimolar doses of GP531 (20 mg/kg) were administered orally in aqueous solution to separate groups (n=3) of rats as GP531 tartrate or Formula Va hydrochloride. […] Cmax increased 6-fold and AUC over 0-4 hr increased 4-fold. In a subsequent study, using the same equimolar doses of GP531 tartrate and prodrug, the relative bioavailability of GP531 was estimated in a group of rats (n=4) by comparison of the amount of GP531 excreted in urine after dosing.

## CC(C)(C)C(=O)O[C@@H]1[C@H](OC(=O)C(C)(C)C)[C@@H](CNCc2ccccc2)O[C@H]1n1cnc(C(N)=O)c1N [Formula Va]
[1]
  logP: 3.31
[2]
  GP531 bioavailability, free base vs hydrochloride salt of the prodrug: no significant difference
